The series in a line: Absorption sites of pitavastatin in rat (in situ loop test). It is filed as in vivo.

Turning to `O=C(O)C[C@H](O)C[C@H](O)/C=C/c1c(C2CC2)nc2ccccc2c1-c1ccc(F)cc1` [pitavastatin, (+)-(3R,5S,6E)-7-[2-cyclopropyl-4-(4-fluorophenyl)-3-quinolyl]-3,5-dihydroxy-6-heptenoic acid], the Absorption percentage is on record as 65.9 ± 2.1% (duodenum, 0.5 h); 60.3 ± 10.2% (duodenum, 1 h); 34.4 ± 3.7% (large intestine, 0.5 h); 51.6 ± 6.7% (large intestine, 1 h); 23.1 ± 3.8% (small intestine, 0.5 h); 21.3 ± 3.0% (small intestine, 1 h). Also, the Absorption percentage came out at 8.6 ± 1.1% (stomach, 0.5 h) and 14.4 ± 1.6% (stomach, 1 h). The “Percentage of absorption in the small intestine relative to that in the duodenum” value (see Table 1) was “about one-third”.

Values taken from patent publication US20040018235A1, “Controlled release pharmaceutical composition” (KOWA CO., LTD, priority 2002, published 2004).
